Values of other authors as cited in patent US20040253138A1, “Plasmon enhanced body treatment and bacterial management” (American Environmental Systems, Inc., priority 2003, published 2004).
Read-outs that look alike come from different tables or passages of the source.

System: E. coli (E. coli-B (SR-9) and E. coli K-12)
Conditions: one hour exposure

Compound	logs of inactivation (30 ppm hydrogen peroxide) [logs]	logs of inactivation (30 ppb silver) [logs]
OO [hydrogen peroxide]	0.65	
[Ag+] [silver]		2.87
